The subject of the assay is Nrf2 transcriptional activity (pARE-Luc reporter) in HepG2 cells. Nature of the assay: In vitro Nrf2 transcriptional activity measurement by ARE-dependent reporter assay in HepG2 cell. It counts as cell-based, human. As to conditions: Homo sapiens; HepG2 cells transfected with pARE-Luc, 4 hours at 37° C.; luciferase activity of Example 1-54 or Example 17-23 at 3.75 μM defined as 100%. In outline:
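Luminescence readout (Bright-Glo) after 4 h, 37° C compound exposure of HepG2 cells carrying the ARE-luciferase vector pGL4.37. Each well converted to % response versus reference compound at 3.75 μM, and EC50 derived from dose-response curves.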
For orientation: A reporter such as luciferase makes a cellular process visible.
`CN1CCC(N2CCN(c3cc(Cl)c(C(=O)N4COc5c(cccc5-c5ccc(C(=O)O)c(N6CCOCC6)c5)C4)c(Cl)c3)CC2)CC1` [Compound 1-63, 4-[3-[2,6-Dichloro-4-[4-(1-methylpiperidin-4-yl)piperazin-1-yl]benzoyl]-2,4-dihydro-1,3-benzoxazin-8-yl]-2-morpholin-4-ylbenzoic acid] came in with an EC50 of 2.1 nM. In the case of `CN1CCN(c2cc(Cl)c(C(=O)N3COc4c(cccc4-c4ccc(C(=O)O)c(N5CCOCC5)c4)C3)c(Cl)c2)CC1` [Compound 1-64, 4-[3-[2,6-Dichloro-4-(4-methylpiperazin-1-yl)benzoyl]-2,4-dihydro-1,3-benzoxazin-8-yl]-2-morpholin-4-ylbenzoic acid], the EC50 worked out at 3 nM. `O=C(O)c1ccc(-c2cccc3c2OCN(C(=O)c2c(Cl)cc(N4CCC(N5CCOCC5)CC4)cc2Cl)C3)cc1N1CCOCC1` [Compound 1-65, 4-[3-[2,6-Dichloro-4-(4-morpholin-4-ylpiperidin-1-yl)benzoyl]-2,4-dihydro-1,3-benzoxazin-8-yl]-2-morpholin-4-ylbenzoic acid]: the EC50 was found to be 3.7 nM. `O=C(O)c1ccc(-c2cccc3c2OCN(C(=O)c2c(Cl)cc(N4CCN(C5COC5)CC4)cc2Cl)C3)cc1N1CCOCC1` [Compound 1-66, 4-[3-[2,6-Dichloro-4-[4-(oxetan-3-yl)piperazin-1-yl]benzoyl]-2,4-dihydro-1,3-benzoxazin-8-yl]-2-morpholin-4-ylbenzoic acid] gave a concentration for a half-maximal effect (EC50) of 2.7 nM. This EC50 and that of the compound before are within 1.5-fold of each other. In the case of `CC(C)N1CCN(c2cc(Cl)c(C(=O)N3COc4c(cccc4-c4ccc(C(=O)O)c(N5CCOCC5)c4)C3)c(Cl)c2)CC1` [Compound 1-67, 4-[3-[2,6-Dichloro-4-(4-propan-2-ylpiperazin-1-yl)benzoyl]-2,4-dihydro-1,3-benzoxazin-8-yl]-2-morpholin-4-ylbenzoic acid] it was 4.4 nM; in that of `CN1CCN(c2cc(Cl)c(C(=O)N3CSc4c(cccc4-c4cc(N5CCOCC5)c(C(=O)O)cc4F)C3)c(Cl)c2)CC1` [Compound 1-68, 4-[3-[2,6-Dichloro-4-(4-methylpiperazin-1-yl)benzoyl]-2,4-dihydro-1,3-benzothiazin-8-yl]-5-fluoro-2-morpholin-4-ylbenzoic acid], 8.1 nM. For the compound `COCCN1CCN(c2cc(Cl)c(C(=O)N3CSc4c(cccc4-c4cc(N5CCOCC5)c(C(=O)O)cc4F)C3)c(Cl)c2)CC1` [Compound 1-69, 4-[3-[2,6-Dichloro-4-[4-(2-methoxyethyl)piperazin-1-yl]benzoyl]-2,4-dihydro-1,3-benzothiazin-8-yl]-5-fluoro-2-morpholin-4-ylbenzoic acid], the EC50 was 5.4 nM. In turn, `O=C(O)c1cc(F)c(-c2cccc3c2OCN(C(=O)c2ccc(N4CCN(C5COC5)CC4)cc2Cl)C3)cc1N1CCOCC1` [Compound 1-70, 4-[3-[2-Chloro-4-[4-(oxetan-3-yl)piperazin-1-yl]benzoyl]-2,4-dihydro-1,3-benzoxazin-8-yl]-5-fluoro-2-morpholin-4-ylbenzoic acid] returned an EC50 of 4.7 nM. For `COC1CN(c2cc(Cl)c(C(=O)N3COc4c(cccc4-c4cc(N5C6CCC5COC6)c(C(=O)O)cc4F)C3)cc2C)C1` [Compound 1-71, 4-[3-[2-Chloro-4-(3-methoxyazetidin-1-yl)-5-methylbenzoyl]-2,4-dihydro-1,3-benzoxazin-8-yl]-5-fluoro-2-(3-oxa-8-azabicyclo[3.2.1]octan-8-yl)benzoic acid], a half-maximal response (EC50) required 6.1 nM. On to `COc1cc(C(=O)N2COc3c(cccc3-c3cc(N4CCOCC4)c(C(=O)O)cc3F)C2)c(Cl)cc1N1CCN(C)CC1` [Compound 1-72, 4-[3-[2-Chloro-5-methoxy-4-(4-methylpiperazin-1-yl)benzoyl]-2,4-dihydro-1,3-benzoxazin-8-yl]-5-fluoro-2-morpholin-4-ylbenzoic acid], for which the EC50 was found to be 5.8 nM. The compound `COc1cc(C(=O)N2COc3c(cccc3-c3cc(N4CCOCC4)c(C(=O)O)cc3F)C2)c(Cl)cc1N1CC2(COC2)C1` [Compound 1-73, 4-[3-[2-Chloro-5-methoxy-4-(2-oxa-6-azaspiro[3.3]heptan-6-yl)benzoyl]-2,4-dihydro-1,3-benzoxazin-8-yl]-5-fluoro-2-morpholin-4-ylbenzoic acid] showed an EC50 of 5.1 nM. On to `COc1cc(C(=O)N2COc3c(cccc3-c3cc(N4C5CCC4COC5)c(C(=O)O)cc3F)C2)c(Cl)cc1N1CC(OC)C1` [Compound 1-74, 4-[3-[2-Chloro-5-methoxy-4-(3-methoxyazetidin-1-yl)benzoyl]-2,4-dihydro-1,3-benzoxazin-8-yl]-5-fluoro-2-(3-oxa-8-azabicyclo[3.2.1]octan-8-yl)benzoic acid], for which the concentration giving a half-maximal response (EC50) was determined as 2.7 nM.

`O=C(O)c1ccc(-c2cccc3c2C(=O)NN(C(=O)c2c(Cl)cc(N4CCN(C5CC5)CC4)cc2Cl)C3)cc1N1CCOCC1` [Compound 1-75, 4-[2-[2,6-Dichloro-4-(4-cyclopropylpiperazin-1-yl)benzoyl]-4-oxo-1,3-dihydrophthalazin-5-yl]-2-morpholin-4-ylbenzoic acid] yielded an EC50 of 8 nM. For `CC(C)N1CCN(c2cc(Cl)c(C(=O)N3Cc4cccc(-c5ccc(C(=O)O)c(N6CCOCC6)c5)c4C(=O)N3)c(Cl)c2)CC1` [Compound 1-76, 4-[2-[2,6-Dichloro-4-(4-propan-2-ylpiperazin-1-yl)benzoyl]-4-oxo-1,3-dihydrophthalazin-5-yl]-2-morpholin-4-ylbenzoic acid], it took 5.3 nM to reach a half-maximal effect (EC50). `O=C(O)c1ccc(-c2cccc3c2C(=O)NN(C(=O)c2c(Cl)cc(N4CCN(CC(F)(F)F)CC4)cc2Cl)C3)cc1N1CCOCC1` [Compound 1-77, 4-[2-[2,6-Dichloro-4-[4-(2,2,2-trifluoroethyl)piperazin-1-yl]benzoyl]-4-oxo-1,3-dihydrophthalazin-5-yl]-2-morpholin-4-ylbenzoic acid] yielded an EC50 of 5.6 nM. This EC50 and that of the compound before are within 1.5-fold of each other. The compound `CN1CCN(c2cc(Cl)c(C(=O)N3COc4c(-c5cc(N6CCOCC6)c(C(=O)O)cc5F)ccc(F)c4C3)c(Cl)c2)CC1` [Compound 1-78, 4-[3-[2,6-Dichloro-4-(4-methylpiperazin-1-yl)benzoyl]-5-fluoro-2,4-dihydro-1,3-benzoxazin-8-yl]-5-fluoro-2-morpholin-4-ylbenzoic acid] yielded a half-maximal effective concentration (EC50) of 15 nM. With `COCCN1CCN(c2cc(Cl)c(C(=O)N3COc4c(ccc(F)c4-c4ccc(C(=O)O)c(N5CCOCC5)c4)C3)c(Cl)c2)CC1` [Compound 1-79, 4-[3-[2,6-Dichloro-4-[4-(2-methoxyethyl)piperazin-1-yl]benzoyl]-7-fluoro-2,4-dihydro-1,3-benzoxazin-8-yl]-2-morpholin-4-ylbenzoic acid] the figure was 3.6 nM. With `CN1CCN(c2cc(Cl)c(C(=O)N3COc4c(ccc(F)c4-c4cc(N5CCOCC5)c(C(=O)O)cc4F)C3)c(Cl)c2)CC1` [Compound 1-80, 4-[3-[2,6-Dichloro-4-(4-methylpiperazin-1-yl)benzoyl]-7-fluoro-2,4-dihydro-1,3-benzoxazin-8-yl]-5-fluoro-2-morpholin-4-ylbenzoic acid] the figure was 1.9 nM. Turning to `COCCN1CCN(c2cc(Cl)c(C(=O)N3COc4c(ccc(F)c4-c4cc(N5CCOCC5)c(C(=O)O)cc4F)C3)c(Cl)c2)CC1` [Compound 1-81, 4-[3-[2,6-Dichloro-4-[4-(2-methoxyethyl)piperazin-1-yl]benzoyl]-7-fluoro-2,4-dihydro-1,3-benzoxazin-8-yl]-5-fluoro-2-morpholin-4-ylbenzoic acid], the EC50 stood at 5.1 nM. Consider `O=C(O)c1cc(F)c(-c2c(F)ccc3c2OCN(C(=O)c2c(Cl)cc(N4CCN(C5COC5)CC4)cc2Cl)C3)cc1N1CCOCC1` [Compound 1-82, 4-[3-[2,6-Dichloro-4-[4-(oxetan-3-yl)piperazin-1-yl]benzoyl]-7-fluoro-2,4-dihydro-1,3-benzoxazin-8-yl]-5-fluoro-2-morpholin-4-ylbenzoic acid], for which the EC50 was 3.5 nM. `C[C@@H]1[C@@H](N2CCOCC2)CN1c1cc(Cl)c(C(=O)N2COc3c(cccc3-c3cc(N4C5CCC4COC5)c(C(=O)O)cc3F)C2)c(Cl)c1` [Compound 1-84, 4-[3-[2,6-Dichloro-4-[(2R,3S)-2-methyl-3-morpholin-4-ylazetidin-1-yl]benzoyl]-2,4-dihydro-1,3-benzoxazin-8-yl]-5-fluoro-2-(3-oxa-8-azabicyclo[3.2.1]octan-8-yl)benzoic acid] yielded an EC50 of 2.4 nM. `C[C@@H]1[C@H](N2CCOCC2)CN1c1cc(Cl)c(C(=O)N2COc3c(cccc3-c3cc(N4C5CCC4COC5)c(C(=O)O)cc3F)C2)c(Cl)c1` [Compound 1-85, 4-[3-[2,6-Dichloro-4-[(2R,3R)-2-methyl-3-morpholin-4-ylazetidin-1-yl]benzoyl]-2,4-dihydro-1,3-benzoxazin-8-yl]-5-fluoro-2-(3-oxa-8-azabicyclo[3.2.1]octan-8-yl)benzoic acid] came in with an EC50 of 0.9 nM. With `COc1cc(-c2cc(Cl)c(C(=O)N3COc4c(cccc4-c4cc(N5C6CCC5COC6)c(C(=O)O)cc4F)C3)c(Cl)c2)ccn1` [Compound 2-1, 4-[3-[2,6-Dichloro-4-(2-methoxypyridin-4-yl)benzoyl]-2,4-dihydro-1,3-benzoxazin-8-yl]-5-fluoro-2-(3-oxa-8-azabicyclo[3.2.1]octan-8-yl)benzoic acid] the figure was 6.2 nM; with `CN1CC=C(c2cc(Cl)c(C(=O)N3COc4c(cccc4-c4cc(N5CCOCC5)c(C(=O)O)cc4F)C3)c(Cl)c2)CC1` [Compound 2-3, 4-[3-[2,6-Dichloro-4-(1-methyl-3,6-dihydro-2H-pyridin-4-yl)benzoyl]-2,4-dihydro-1,3-benzoxazin-8-yl]-5-fluoro-2-morpholin-4-ylbenzoic acid], 1.4 nM; with `O=C(O)c1ccc(-c2cccc3c2OCN(C(=O)c2c(Cl)cc(-c4ccncc4)cc2Cl)C3)cc1N1CCOCC1` [Compound 2-4, 4-[3-(2,6-Dichloro-4-pyridin-4-ylbenzoyl)-2,4-dihydro-1,3-benzoxazin-8-yl]-2-morpholin-4-ylbenzoic acid], 5.7 nM.

What is called EC50 is the concentration at which the effect is half-maximal. Low readings indicate an effect from little substance, high ones a need for much substance.

The values are drawn from US20250171457A1, “NITROGEN-CONTAINING HETEROCYCLIC COMPOUND HAVING NRF2 ACTIVATION EFFECT” (CHUGAI SEIYAKU KABUSHIKI KAISHA, priority 2022, published 2025).
